Source: PMC7076515, “Impact of Mucin on Drug Diffusion: Development of a Straightforward In Vitro Method for the Determination of Drug Diffusivity in the Presence of Mucin” (Pharmaceutics, 2020)
Entries after “also recorded” stand apart in the source; their conditions may differ.

Tests used:
[1] = test system: mucin from porcine stomach type III; test: UV-visible localized spectroscopy: diffusion from mucin dispersions into water (Drel), and of mucin itself; type: physicochemical; conditions: compared to the absence of mucin
Text: Mucin type III from porcine stomach was dispersed in PBS 65 mOsm/kg (pH 7.4) to obtain 0.1, 0.3 and 0.6% (w/w) mucin dispersions.
In brief, Fick’s second law of diffusion was analytically solved (Equation (1)) assuming times (t) and positions (x) such that t ≪ h2/D and x ≪ h (where h is the full length of the cuvette occupied by water, 3.30 cm). […] (1) c(x,t)=2A/π e^−x^2/2σ^2+4Dt/2σ^2+4Dt

[2] = UV-visible localized spectroscopy: drug diffusion coefficient in water (D0); conditions: no mucin; drug in PBS 65 mOsm/kg pH 7.4 injected into water; 23–25 °C; average of two parallel experiments
[3] = parameters: method as in Drugbank [15]; conditions: ref Drugbank [15], cited from earlier work
[4] = test system: purified gastric mucin type II; parameters: method as in PMID 9188047, PMID 9487548; conditions: ref [24],[25]; cited from earlier work
[5] = parameters: method as in PMID 9188047, PMID 9487548; conditions: ref [24],[25]; cited from earlier work

| Structure (SMILES) | D Reduction (%) ([1]; MUC 0.0%) | D Reduction (%) ([1]; MUC 0.1% w/w) | D Reduction (%) ([1]; MUC 0.3% w/w) | D Reduction (%) ([1]; MUC 0.6% w/w) | D0 (diffusion coefficient in plain water) [2] | Charge at pH 7.4 [3] | Diffusion in purified gastric mucin versus phosphate buffer [4] | Diffusion in native pig intestinal mucus [5] | pKa [3] |
| --- | --- | --- | --- | --- | --- | --- | --- | --- | --- |
| COc1ccc2cc([C@H](C)C(=O)O)ccc2c1 [NPR, naproxen] | 0% | 25% | 53% | 65% | 8.02 10^−6 cm^2/s | – | – | – | – |
| CC(C)NCC(O)COc1ccc(CC(N)=O)cc1 (stereo not shown) [ATN, Atenolol] | 0% | 24% | 47% | 63% | 5.81 10^−6 cm^2/s | – | – | – | – |
| Cn1c(=O)c2c(ncn2C)n(C)c1=O [CAF, caffeine] | 0% | 33% | 51% | 67% | 9.07 10^−6 cm^2/s | 0 | – | – | – |
| C[C@]12CCC(=O)C=C1CC[C@@H]1[C@@H]2[C@@H](O)C[C@@]2(C)[C@H]1CC[C@]2(O)C(=O)CO [HYD, hydrocortisone] | 0% | 17% | 36% | 37% | 6.44 10^−6 cm^2/s | 0 | comparable to the one in phosphate buffer; also recorded: not hindered compared to phosphate buffer | impaired to a higher extent; also recorded: slow down the diffusion | 12.6 |
